Measured values from US10577363B2, “Substituted piperidine compounds” (EPIZYME, INC., priority 2014, dated 2020).
One block for each molecule: values may come before it.

Assays:
SMYD3 [1] = target: T1, SMYD3 (Homo sapiens (Human), UniProt Q9H7B4); assay: SMYD3 biochemical assay (SPA, 3H-SAM methylation of MEKK2 protein substrate)
Summary of the method: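 Native full-length human SMYD3 (E. coli-expressed, tags removed) was preincubated with compound for 30 min at room temperature in 25 mM Tris-Cl pH 8.0, 1 mM TCEP, 0.005% BSG, 0.005% Tween 20. Reaction was started with 3H-SAM plus GST-MEKK2, quenched with 100 uM unlabeled SAM, and read by SPA scintillation counting.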

SMYD3 [2] = target: T1, SMYD3; assay: SMYD3 cell assay (Trimethyl-MEKK2 In-Cell Western in 293T/17 cells); assay type: cell-based
Summary of the method: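 In-Cell Western ratio of trimethyl-Lys260 MEKK2 to anti-flag signal; percent inhibition from DMSO and maximum-inhibition controls, IC50 by non-linear regression, triplicates.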

[3] = IC50 values are an average of n = 1 to n = 50, read-out: SMYD3 Biochem IC50*
[4] = IC50 values are an average of n = 1 to n = 50, read-out: SMYD3 Cell IC50*
[5] = average of n = 1 to n = 50, read-out: SMYD3 Biochem IC50
[6] = average of n = 1 to n = 50, read-out: SMYD3 Cell IC50
[7] = read-out: SMYD3 Biochem IC50 (μM)*
[8] = read-out: SMYD3 Cell IC50 (μM)*
[9] = Table 2A, read-out: SMYD3 Biochem IC50
[10] = Table 2A, read-out: SMYD3 Cell IC50
[11] = 293T/17 cells, read-out: SMYD3 Cell IC50 (μM)*

T1 sequence (Q9H7B4 whole entry): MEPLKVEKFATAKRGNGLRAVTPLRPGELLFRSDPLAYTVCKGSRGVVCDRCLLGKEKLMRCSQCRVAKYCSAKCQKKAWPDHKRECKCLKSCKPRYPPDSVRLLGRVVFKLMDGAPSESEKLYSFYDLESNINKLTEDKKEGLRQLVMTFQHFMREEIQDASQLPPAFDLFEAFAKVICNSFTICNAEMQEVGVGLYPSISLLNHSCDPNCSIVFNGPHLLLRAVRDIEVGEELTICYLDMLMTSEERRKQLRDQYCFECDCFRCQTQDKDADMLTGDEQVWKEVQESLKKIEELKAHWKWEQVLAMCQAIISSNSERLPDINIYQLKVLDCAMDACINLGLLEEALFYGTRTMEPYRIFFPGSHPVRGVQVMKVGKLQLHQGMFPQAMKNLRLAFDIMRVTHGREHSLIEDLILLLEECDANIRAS

SMILES: O=C(N[C@H]1C[C@H]2CC[C@@H](C1)N2S(=O)(=O)N1CC2CCC(C1)N2CCN1CCOCC1)c1cc(C2CC2)on1 [compound 967, 5-cyclopropyl-N-((1R,3r,5S)-8-((8-(2-morpholinoethyl)-3,8-diazabicyclo[3.2.1]octan-3-yl)sulfonyl)-8-azabicyclo[3.2.1]octan-3-yl)isoxazole-3-carboxamide]
IC50 (SMYD3 [1]; [3]): 0.087 µM
IC50 (SMYD3 [2]; [4]): 0.503 µM

IC50 (SMYD3 [1]; [5]): 0.131 µM
IC50 (SMYD3 [2]; [6]): 0.783 µM
SMILES: C[C@@H]1CN(S(=O)(=O)CCN)[C@H](C)C[C@@H]1NC(=O)c1cc(C2CC2)on1 [compound 688, N-((2R,4S,5R)-1-((2-aminoethyl)sulfonyl)-2,5-dimethylpiperidin-4-yl)-5-cyclopropylisoxazole-3-carboxamide]

IC50 (SMYD3 [1]; read-out: SMYD3 Biochem IC50*): 0.00505 µM
IC50 (SMYD3 [2]; read-out: SMYD3 Cell IC50*): 0.124 µM
SMILES: C[C@H]1C[C@@H](NC(=O)c2cc(C3CC3)on2)CCN1S(=O)(=O)CC[C@@H]1CCNC1 [compound 841, 5-cyclopropyl-N-((2S,4S)-2-methyl-1-((2-((S)-pyrrolidin-3-yl)ethyl)sulfonyl)piperidin-4-yl)isoxazole-3-carboxamide]

SMILES: CN(C1CCN(Cc2ccccc2)CC1)S(=O)(=O)N1[C@@H]2CC[C@H]1C[C@@H](NC(=O)c1cc(C3CC3)on1)C2 [compound 659, N-((1R,3r,5S)-8-(N-(1-benzylpiperidin-4-yl)-N-methylsulfamoyl)-8-azabicyclo[3.2.1]octan-3-yl)-5-cyclopropylisoxazole-3-carboxamide]
IC50 (SMYD3 [1]; [5]): 0.0664 µM
IC50 (SMYD3 [2]; [6]): 0.578 µM

IC50 (SMYD3 [1]; [7]): 0.321 µM
IC50 (SMYD3 [2]; [8]): 2.9 µM
SMILES: NCCCS(=O)(=O)N1CCC(NC(=O)c2cc(C3CC3)on2)CC1 [compound 210, N-(1-((3-aminopropyl)sulfonyl)piperidin-4-yl)-5-cyclopropylisoxazole-3-carboxamide]

SMILES: CN(C)CCCS(=O)(=O)N1[C@@H]2CC[C@H]1C[C@@H](NC(=O)c1cc(C3CC3)on1)C2 [compound 593, 5-cyclopropyl-N-((1R,3r,5S)-8-((3-(dimethylamino)propyl)sulfonyl)-8-azabicyclo[3.2.1]octan-3-yl)isoxazole-3-carboxamide]
IC50 (SMYD3 [1]; [9]): 0.0118 µM
IC50 (SMYD3 [2]; [10]): 0.147 µM

IC50 (SMYD3 [1]; [5]): 0.0298 µM
IC50 (SMYD3 [2]; [6]): 0.298 µM
SMILES: C[C@H]1C[C@@H](NC(=O)c2cc(C3CC3)on2)CCN1S(=O)(=O)N1CC2CCC1CN2C (stereo partly drawn) [compound 631, 5-cyclopropyl-N-((2S,4S)-2-methyl-1-((5-methyl-2,5-diazabicyclo[2.2.2]octan-2-yl)sulfonyl)piperidin-4-yl)isoxazole-3-carboxamide]

IC50 (SMYD3 [1]; [5]): 0.676 µM
IC50 (SMYD3 [2]; [6]): 3.71 µM
SMILES: C[C@H]1C[C@@H](NC(=O)c2cc(C3CC3)on2)CCN1S(=O)(=O)NCc1c(F)cccc1Cl [compound 754, N-((2S,4S)-1-(N-(2-chloro-6-fluorobenzyl)sulfamoyl)-2-methylpiperidin-4-yl)-5-cyclopropylisoxazole-3-carboxamide]

SMILES: CNCCCS(=O)(=O)N1[C@@H]2CC[C@H]1C[C@@H](NC(=O)c1cc(C3CC3)on1)C2 [compound 591, 5-cyclopropyl-N-((1R,3r,5S)-8-((3-(methylamino)propyl)sulfonyl)-8-azabicyclo[3.2.1]octan-3-yl)isoxazole-3-carboxamide]
IC50 (SMYD3 [1]; [9]): 0.0111 µM
IC50 (SMYD3 [2]; [10]): 0.15 µM

IC50 (SMYD3 [1]; read-out: SMYD3 Biochem IC50*): 0.00236 µM
IC50 (SMYD3 [2]; read-out: SMYD3 Cell IC50*): 0.0608 µM
SMILES: C[C@H]1C[C@@H](NC(=O)c2cc(C3CC3)on2)CCN1S(=O)(=O)N1CCC2(CCCN2)CC1 [compound 804, N-((2S,4S)-1-((1,8-diazaspiro[4.5]decan-8-yl)sulfonyl)-2-methylpiperidin-4-yl)-5-cyclopropylisoxazole-3-carboxamide]

IC50 (SMYD3 [1]; [5]): 0.677 µM
IC50 (SMYD3 [2]; [6]): 2.38 µM
SMILES: C[C@@H]1CN(S(=O)(=O)N2CC[C@H](NC(=O)c3cc(C4CC4)on3)C[C@@H]2C)C[C@H](C)N1C [compound 755, 5-cyclopropyl-N-((2S,4S)-2-methyl-1-(((3S,5R)-3,4,5-trimethylpiperazin-1-yl)sulfonyl)piperidin-4-yl)isoxazole-3-carboxamide]

SMILES: COCCN(C)c1ccc(S(=O)(=O)N2CC[C@@H](NC(=O)c3cc(C4CC4)on3)C[C@H]2C)cn1 [compound 455, 5-cyclopropyl-N-((2R,4R)-1-((6-((2-methoxyethyl)(methyl)amino)pyridin-3-yl)sulfonyl)-2-methylpiperidin-4-yl)isoxazole-3-carboxamide]
IC50 (SMYD3 [1]; [7]): > 10 µM
IC50 (SMYD3 [2]; [11]): > 10 µM

SMILES: O=C(N[C@H]1C[C@H]2CC[C@@H](C1)N2S(=O)(=O)CC1CCN(CCCC(F)(F)F)CC1)c1cc(C2CC2)on1 [Cpd. No. 528, 5-cyclopropyl-N-[(1R,3r,5S)-8-([[1-(4,4,4-trifluorobutyl)piperidin-4-yl]methane]sulfonyl)-8-azabicyclo[3.2.1]octan-3-yl]-1,2-oxazole-3-carboxamide]
IC50 (SMYD3 [1]; [9]): 0.0006 µM
IC50 (SMYD3 [2]; [10]): 0.0231 µM

IC50 (SMYD3 [1]; [7]): 0.00409 µM
IC50 (SMYD3 [2]; [8]): 0.831 µM
SMILES: C[C@H]1C[C@@H](NC(=O)c2cc(C3CC3)on2)CCN1S(=O)(=O)CCCN [compound 187]

SMILES: O=C(N[C@H]1C[C@H]2CC[C@@H](C1)N2S(=O)(=O)CC1CCCNC1)c1cc(C2CC2)on1 (stereo partly drawn) [compound 547, 5-cyclopropyl-N-((1R,3r,5S)-8-((piperidin-3-ylmethyl)sulfonyl)-8-azabicyclo[3.2.1]octan-3-yl)isoxazole-3-carboxamide]
IC50 (SMYD3 [1]; [9]): 0.0023 µM
IC50 (SMYD3 [2]; [10]): 0.0704 µM

SMILES: O=C(NC1CC2CCCC(C1)N2S(=O)(=O)CCCN1CCOCC1)c1cc(C2CC2)on1 (stereo not drawn) [compound 410, 5-cyclopropyl-N-(9-((3-morpholinopropyl)sulfonyl)-9-azabicyclo[3.3.1]nonan-3-yl)isoxazole-3-carboxamide]
IC50 (SMYD3 [1]; [7]): 6.32 µM
IC50 (SMYD3 [2]; [11]): > 10 µM

IC50 (SMYD3 [1]; [3]): 0.142 µM
IC50 (SMYD3 [2]; [4]): 1.85 µM
SMILES: C[C@H]1C[C@@H](NC(=O)c2cc(C3CC3)on2)CCN1S(=O)(=O)N1CCNC[C@@H]1c1ccccc1 [compound 984, 5-cyclopropyl-N-((2S,4S)-2-methyl-1-(((S)-2-phenylpiperazin-1-yl)sulfonyl)piperidin-4-yl)isoxazole-3-carboxamide]

IC50 (SMYD3 [1]; [5]): 0.806 µM
IC50 (SMYD3 [2]; [6]): 9.67 µM
SMILES: C[C@@H]1C[C@H](NC(=O)c2cc(C3CC3)on2)CCN1C(=O)c1ccc(OCCN2CCNCC2)cc1 [compound 764, 5-cyclopropyl-N-((2R,4R)-2-methyl-1-(4-(2-(piperazin-1-yl)ethoxy)benzoyl)piperidin-4-yl)isoxazole-3-carboxamide]

SMILES: O=C(N[C@H]1C[C@H]2CC[C@@H](C1)N2S(=O)(=O)N1CC2(CCN(Cc3ccccc3)CC2)C1)c1cc(C2CC2)on1 [compound 824, N-((1R,3r,5S)-8-((7-benzyl-2,7-diazaspiro[3.5]nonan-2-yl)sulfonyl)-8-azabicyclo[3.2.1]octan-3-yl)-5-cyclopropylisoxazole-3-carboxamide]
IC50 (SMYD3 [1]; read-out: SMYD3 Biochem IC50*): 0.00387 µM
IC50 (SMYD3 [2]; read-out: SMYD3 Cell IC50*): 0.0804 µM

SMILES: CCN(CC)C1CCN(S(=O)(=O)N2[C@@H]3CC[C@H]2C[C@@H](NC(=O)c2cc(C4CC4)on2)C3)CC1 [compound 889, 5-cyclopropyl-N-((1R,3r,5S)-8-((4-(diethylamino)piperidin-1-yl)sulfonyl)-8-azabicyclo[3.2.1]octan-3-yl)isoxazole-3-carboxamide]
IC50 (SMYD3 [1]; read-out: SMYD3 Biochem IC50*): 0.0127 µM
IC50 (SMYD3 [2]; read-out: SMYD3 Cell IC50*): 0.216 µM

SMILES: O=C(N[C@H]1C[C@H]2CC[C@@H](C1)N2S(=O)(=O)N1CCC(NCc2c(F)cccc2F)CC1)c1cc(C2CC2)on1 [compound 924, 5-cyclopropyl-N-((1R,3r,5S)-8-((4-((2,6-difluorobenzyl)amino)piperidin-1-yl)sulfonyl)-8-azabicyclo[3.2.1]octan-3-yl)isoxazole-3-carboxamide]
IC50 (SMYD3 [1]; read-out: SMYD3 Biochem IC50*): 0.0289 µM
IC50 (SMYD3 [2]; read-out: SMYD3 Cell IC50*): 0.67 µM

SMILES: O=C(N[C@@H]1C[C@H]2CC[C@@H](C1)N2S(=O)(=O)C1CCCNC1)c1cc(C2CC2)on1 (stereo partly drawn) [compound 729, 5-cyclopropyl-N-((1R,3s,5S)-8-(piperidin-3-ylsulfonyl)-8-azabicyclo[3.2.1]octan-3-yl)isoxazole-3-carboxamide]
IC50 (SMYD3 [1]; [5]): 0.411 µM
IC50 (SMYD3 [2]; [6]): 2.53 µM

IC50 (SMYD3 [1]; [5]): 0.247 µM
IC50 (SMYD3 [2]; [6]): 2.54 µM
SMILES: O=C(N[C@H]1CCN(S(=O)(=O)CC2CCN(CCCO)CC2)[C@@H](Cc2ccccc2)C1)c1cc(C2CC2)on1 [compound 707, N-((2S,4S)-2-benzyl-1-(((1-(3-hydroxypropyl)piperidin-4-yl)methyl)sulfonyl)piperidin-4-yl)-5-cyclopropylisoxazole-3-carboxamide]

SMILES: CC1CN(S(=O)(=O)CCCN)CCC1NC(=O)c1cc(C2CC2)on1 (stereo not drawn) [compound 46, N-(1-((3-aminopropyl)sulfonyl)-3-methylpiperidin-4-yl)-5-cyclopropylisoxazole-3-carboxamide]
IC50 (SMYD3 [1]; [7]): 0.119 µM
IC50 (SMYD3 [2]): 1.02 µM

IC50 (SMYD3 [1]; [5]): 0.194 µM
IC50 (SMYD3 [2]; [6]): 2.11 µM
SMILES: O=C(N[C@H]1CCN(S(=O)(=O)CC2CCCNC2)[C@@H](Cc2ccccc2)C1)c1cc(C2CC2)on1 (stereo partly drawn) [compound 700, N-((2S,4S)-2-benzyl-1-((piperidin-3-ylmethyl)sulfonyl)piperidin-4-yl)-5-cyclopropylisoxazole-3-carboxamide]

IC50 (SMYD3 [1]; [5]): 0.518 µM
IC50 (SMYD3 [2]; [6]): 2.35 µM
SMILES: O=C(N[C@@H]1CCN(S(=O)(=O)CC2CCNCC2)[C@H](Cc2ccccc2)C1)c1cc(C2CC2)on1 [compound 744, N-((2R,4R)-2-benzyl-1-((piperidin-4-ylmethyl)sulfonyl)piperidin-4-yl)-5-cyclopropylisoxazole-3-carboxamide]

SMILES: CC(=O)Nc1ccc(S(=O)(=O)N2C3CCCC2CC(NC(=O)c2cc(C4CC4)on2)C3)cc1 (stereo not drawn) [compound 402, N-(9-((4-acetamidophenyl)sulfonyl)-9-azabicyclo[3.3.1]nonan-3-yl)-5-cyclopropylisoxazole-3-carboxamide]
IC50 (SMYD3 [1]; [7]): 4.92 µM
IC50 (SMYD3 [2]; [11]): > 10 µM
